Reference: the supplement of paper PMC10307832

Legend:
Test in all cases: relative viability (nuclei count vs DMSO), 5 days (fraction); higher = more cells survive
[1] = compound: C1CC(C1)(C(=O)O)C(=O)O.[NH2-].[NH2-].[Pt+2] [Carboplatin] + CS(=O)(=O)CCNCc1ccc(-c2ccc3ncnc(Nc4ccc(OCc5cccc(F)c5)c(Cl)c4)c3c2)o1 [Lapatinib] (partner 2 µM)
How it was run: (§1)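 Five library-drug doses in √10 steps were combined with a fixed anchor-drug dose, or a single drug was given alone, by pin tool to lung cancer cell lines in 1536-well plates the day after seeding. Nuclei were stained and counted after 5 days. Relative viability is the nuclei count in treated wells over that in vehicle wells, taken as the median of duplicate plates.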

[2] = compound: CC[C@H](C)N1C=C(C2=C(C=C(C=C21)C3=CN=C(C=C3)N4CCNCC4)C(=O)NCC5=C(C=C(NC5=O)C)C)C [GSK126] + O=C(c1cc(Cc2n[nH]c(=O)c3ccccc23)ccc1F)N1CCN(C(=O)C2CC2)CC1 [Olaparib] (partner 8 µM)
How it was run: as §1

[3] = compound: NS(=O)(=O)OC[C@@H]1C[C@@H](n2ccc3c(N[C@H]4CCc5ccccc54)ncnc32)C[C@@H]1O [MLN4924] + CCNC(=O)c1noc(-c2cc(C(C)C)c(O)cc2O)c1-c1ccc(CN2CCOCC2)cc1 [Luminespib] (partner 0.01 µM)
How it was run: as §1

[4] = compound: NS(=O)(=O)OC[C@@H]1C[C@@H](n2ccc3c(N[C@H]4CCc5ccccc54)ncnc32)C[C@@H]1O [MLN4924] + Cc1nc(Nc2ncc(C(=O)Nc3c(C)cccc3Cl)s2)cc(N2CCN(CCO)CC2)n1 [Dasatinib] (partner 0.075 µM)
How it was run: as §1

Cell Line: UMC-11
- relative viability ([1]; first compound 0.08 µM): 1.01
- relative viability ([1]; first compound 0.253 µM): 0.941
- relative viability ([1]; first compound 0.8 µM): 1.07
- relative viability ([1]; first compound 2.53 µM): 1.04
- relative viability ([1]; first compound 8 µM): 0.847
- relative viability ([2]; first compound 0.08 µM): 0.345
- relative viability ([2]; first compound 0.253 µM): 0.364
- relative viability ([2]; first compound 0.8 µM): 0.394
- relative viability ([2]; first compound 2.53 µM): 0.376
- relative viability ([2]; first compound 8 µM): 0.361
- relative viability ([3]; first compound 0.04 µM): 0.598
- relative viability ([3]; first compound 0.1265 µM): 0.351
- relative viability ([3]; first compound 0.4 µM): 0.285
- relative viability ([3]; first compound 1.265 µM): 0.17
- relative viability ([3]; first compound 4 µM): 0.182
- relative viability ([4]; first compound 0.04 µM): 0.505
- relative viability ([4]; first compound 0.1265 µM): 0.349
- relative viability ([4]; first compound 0.4 µM): 0.251
- relative viability ([4]; first compound 1.265 µM): 0.151
- relative viability ([4]; first compound 4 µM): 0.177
